# Results as given in PubChem BioAssay (NCI).
#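 The compound was tested at five concentrations on cells cultured in 96-well plates, with a 48-hour exposure period. The concentration for 50% growth inhibition is given as GI50. At the TGI there is no net growth.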
# Columns and labels:
# Assay in all cases: NCI-60 cell line screen, 48 h
# 786-0 renal = system: 786-0 renal
# A498 renal = system: A498 renal
# A549 NSCLC = system: A549 NSCLC
# ACHN renal = system: ACHN renal
# BT-549 breast = system: BT-549 breast
# CAKI-1 renal = system: CAKI-1 renal
# CCRF-CEM leukemia = system: CCRF-CEM leukemia
# COLO 205 colon = system: COLO 205 colon
# DU-145 prostate = system: DU-145 prostate
# EKVX NSCLC = system: EKVX NSCLC
# HCC-2998 colon = system: HCC-2998 colon
# HCT-116 colon = system: HCT-116 colon
# HCT-15 colon = system: HCT-15 colon
# HL-60(TB) leukemia = system: HL-60(TB) leukemia
# HOP-92 NSCLC = system: HOP-92 NSCLC
# HS 578T breast = system: HS 578T breast
# HT29 colon = system: HT29 colon
# IGROV1 ovarian = system: IGROV1 ovarian
# K-562 leukemia = system: K-562 leukemia
# KM12 colon = system: KM12 colon
# LOX IMVI melanoma = system: LOX IMVI melanoma
# M14 melanoma = system: M14 melanoma
# MALME-3M melanoma = system: MALME-3M melanoma
# MCF7 breast = system: MCF7 breast
# MDA-MB-231 breast = system: MDA-MB-231 breast
# MDA-MB-435 = system: MDA-MB-435
# MOLT-4 leukemia = system: MOLT-4 leukemia
# NCI-H226 lung = system: NCI-H226 lung
# NCI-H23 lung = system: NCI-H23 lung
# NCI-H460 lung = system: NCI-H460 lung
# NCI-H522 lung = system: NCI-H522 lung
# NCI/ADR-RES ovarian = system: NCI/ADR-RES ovarian
# OVCAR-4 ovarian = system: OVCAR-4 ovarian
# OVCAR-5 ovarian = system: OVCAR-5 ovarian
# OVCAR-8 ovarian = system: OVCAR-8 ovarian
# PC-3 prostate = system: PC-3 prostate
# SF-268 CNS = system: SF-268 CNS
# SF-295 CNS = system: SF-295 CNS
# SF-539 CNS = system: SF-539 CNS
# SK-MEL-2 melanoma = system: SK-MEL-2 melanoma
# SK-MEL-28 melanoma = system: SK-MEL-28 melanoma
# SK-MEL-5 melanoma = system: SK-MEL-5 melanoma
# SK-OV-3 ovarian = system: SK-OV-3 ovarian
# SN12C renal = system: SN12C renal
# SNB-19 CNS = system: SNB-19 CNS
# SR leukemia = system: SR leukemia
# SW-620 colon = system: SW-620 colon
# T-47D breast = system: T-47D breast
# TK-10 renal = system: TK-10 renal
# U251 CNS = system: U251 CNS
# UACC-257 melanoma = system: UACC-257 melanoma
# UACC-62 melanoma = system: UACC-62 melanoma
# UO-31 renal = system: UO-31 renal
# HOP-62 NSCLC = system: HOP-62 NSCLC
# OVCAR-3 ovarian = system: OVCAR-3 ovarian
# RPMI-8226 leukemia = system: RPMI-8226 leukemia
# RXF 393 renal = system: RXF 393 renal
# SNB-75 CNS = system: SNB-75 CNS
smiles,measurement,setting,value
CC1(O)CC23CC(O)C4(O)C(CC(O)C4(C)C)C(C)(O)C2CCC1C3O (stereo unspecified),TGI,786-0 renal,> 100000 nM
same,TGI,A498 renal,> 100000 nM
same,TGI,A549 NSCLC,> 100000 nM
same,TGI,ACHN renal,> 100000 nM
same,TGI,BT-549 breast,> 100000 nM
same,TGI,CAKI-1 renal,> 100000 nM
same,TGI,CCRF-CEM leukemia,> 100000 nM
same,TGI,COLO 205 colon,> 100000 nM
same,TGI,DU-145 prostate,> 100000 nM
same,TGI,EKVX NSCLC,> 100000 nM
same,TGI,HCC-2998 colon,> 100000 nM
same,TGI,HCT-116 colon,> 100000 nM
same,TGI,HCT-15 colon,> 100000 nM
same,TGI,HL-60(TB) leukemia,> 100000 nM
same,TGI,HOP-92 NSCLC,> 100000 nM
same,TGI,HS 578T breast,> 100000 nM
same,TGI,HT29 colon,> 100000 nM
same,TGI,IGROV1 ovarian,> 100000 nM
same,TGI,K-562 leukemia,> 100000 nM
same,TGI,KM12 colon,> 100000 nM
same,TGI,LOX IMVI melanoma,> 100000 nM
same,TGI,M14 melanoma,> 100000 nM
same,TGI,MALME-3M melanoma,> 100000 nM
same,TGI,MCF7 breast,> 100000 nM
same,TGI,MDA-MB-231 breast,> 100000 nM
same,TGI,MDA-MB-435,> 100000 nM
same,TGI,MOLT-4 leukemia,> 100000 nM
same,TGI,NCI-H226 lung,> 100000 nM
same,TGI,NCI-H23 lung,> 100000 nM
same,TGI,NCI-H460 lung,> 100000 nM
same,TGI,NCI-H522 lung,> 100000 nM
same,TGI,NCI/ADR-RES ovarian,> 100000 nM
same,TGI,OVCAR-4 ovarian,> 100000 nM
same,TGI,OVCAR-5 ovarian,> 100000 nM
same,TGI,OVCAR-8 ovarian,> 100000 nM
same,TGI,PC-3 prostate,> 100000 nM
same,TGI,SF-268 CNS,> 100000 nM
same,TGI,SF-295 CNS,> 100000 nM
same,TGI,SF-539 CNS,> 100000 nM
same,TGI,SK-MEL-2 melanoma,> 100000 nM
same,TGI,SK-MEL-28 melanoma,> 100000 nM
same,TGI,SK-MEL-5 melanoma,> 100000 nM
same,TGI,SK-OV-3 ovarian,> 100000 nM
same,TGI,SN12C renal,> 100000 nM
same,TGI,SNB-19 CNS,> 100000 nM
same,TGI,SR leukemia,> 100000 nM
same,TGI,SW-620 colon,> 100000 nM
same,TGI,T-47D breast,> 100000 nM
same,TGI,TK-10 renal,> 100000 nM
same,TGI,U251 CNS,> 100000 nM
same,TGI,UACC-257 melanoma,> 100000 nM
same,TGI,UACC-62 melanoma,> 100000 nM
same,TGI,UO-31 renal,> 100000 nM
COc1cc2c(cc1OC)C(Sc1ccc(Cl)cc1)c1c(nc(N)c(C#N)c1N)O2 (stereo unspecified),GI50,786-0 renal,1370 nM
same,TGI,786-0 renal,2700 nM
same,GI50,A498 renal,1730 nM
same,TGI,A498 renal,5010 nM
same,GI50,A549 NSCLC,1750 nM
same,TGI,A549 NSCLC,3360 nM
same,GI50,ACHN renal,1590 nM
same,TGI,ACHN renal,2950 nM
same,GI50,BT-549 breast,1490 nM
same,TGI,BT-549 breast,2830 nM
same,GI50,CCRF-CEM leukemia,311 nM
same,TGI,CCRF-CEM leukemia,2630 nM
same,GI50,COLO 205 colon,1430 nM
same,TGI,COLO 205 colon,2950 nM
same,GI50,DU-145 prostate,1670 nM
same,TGI,DU-145 prostate,3050 nM
same,GI50,EKVX NSCLC,1570 nM
same,TGI,EKVX NSCLC,3020 nM
same,GI50,HCC-2998 colon,1720 nM
same,TGI,HCC-2998 colon,3250 nM
same,GI50,HCT-116 colon,1960 nM
same,TGI,HCT-116 colon,3460 nM
same,GI50,HCT-15 colon,1190 nM
same,TGI,HCT-15 colon,2660 nM
same,GI50,HL-60(TB) leukemia,578 nM
same,TGI,HL-60(TB) leukemia,3730 nM
same,GI50,HOP-62 NSCLC,1530 nM
same,TGI,HOP-62 NSCLC,2880 nM
same,GI50,HOP-92 NSCLC,1510 nM
same,TGI,HOP-92 NSCLC,3190 nM
same,GI50,HS 578T breast,1980 nM
same,TGI,HS 578T breast,6430 nM
same,GI50,HT29 colon,1880 nM
same,TGI,HT29 colon,4120 nM
same,GI50,IGROV1 ovarian,1070 nM
same,TGI,IGROV1 ovarian,2880 nM
same,GI50,K-562 leukemia,791 nM
same,TGI,K-562 leukemia,8280 nM
same,GI50,KM12 colon,1750 nM
same,TGI,KM12 colon,3350 nM
same,GI50,LOX IMVI melanoma,1090 nM
same,TGI,LOX IMVI melanoma,2350 nM
same,GI50,M14 melanoma,1630 nM
same,TGI,M14 melanoma,3100 nM
same,GI50,MALME-3M melanoma,1490 nM
same,TGI,MALME-3M melanoma,3100 nM
same,GI50,MCF7 breast,564 nM
same,TGI,MCF7 breast,2910 nM
same,GI50,MDA-MB-231 breast,1370 nM
same,TGI,MDA-MB-231 breast,2760 nM
same,GI50,MDA-MB-435,1420 nM
same,TGI,MDA-MB-435,2850 nM
same,GI50,MOLT-4 leukemia,917 nM
same,TGI,MOLT-4 leukemia,4890 nM
same,GI50,NCI-H460 lung,1650 nM
same,TGI,NCI-H460 lung,3740 nM
same,GI50,NCI-H522 lung,1290 nM
same,TGI,NCI-H522 lung,2640 nM
same,GI50,OVCAR-3 ovarian,1270 nM
same,TGI,OVCAR-3 ovarian,2560 nM
same,GI50,OVCAR-4 ovarian,1530 nM
same,TGI,OVCAR-4 ovarian,2960 nM
same,GI50,OVCAR-5 ovarian,1890 nM
same,TGI,OVCAR-5 ovarian,3880 nM
same,GI50,OVCAR-8 ovarian,1390 nM
same,TGI,OVCAR-8 ovarian,2760 nM
same,GI50,PC-3 prostate,1560 nM
same,TGI,PC-3 prostate,3070 nM
same,GI50,RPMI-8226 leukemia,1420 nM
same,TGI,RPMI-8226 leukemia,4800 nM
same,GI50,RXF 393 renal,1390 nM
same,TGI,RXF 393 renal,2770 nM
same,GI50,SF-268 CNS,1650 nM
same,TGI,SF-268 CNS,3170 nM
same,GI50,SF-295 CNS,1830 nM
same,TGI,SF-295 CNS,3310 nM
same,GI50,SF-539 CNS,1610 nM
same,TGI,SF-539 CNS,3030 nM
same,GI50,SK-MEL-2 melanoma,1200 nM
same,TGI,SK-MEL-2 melanoma,2550 nM
same,GI50,SK-MEL-28 melanoma,1570 nM
same,TGI,SK-MEL-28 melanoma,3110 nM
same,GI50,SK-MEL-5 melanoma,1390 nM
same,TGI,SK-MEL-5 melanoma,2710 nM
same,GI50,SK-OV-3 ovarian,1740 nM
same,TGI,SK-OV-3 ovarian,3120 nM
same,GI50,SN12C renal,1510 nM
same,TGI,SN12C renal,2940 nM
same,GI50,SNB-19 CNS,1470 nM
same,TGI,SNB-19 CNS,2860 nM
same,GI50,SNB-75 CNS,1140 nM
same,TGI,SNB-75 CNS,2420 nM
same,GI50,SR leukemia,329 nM
same,TGI,SR leukemia,1660 nM
same,GI50,SW-620 colon,1370 nM
same,TGI,SW-620 colon,3140 nM
same,GI50,T-47D breast,1290 nM
same,TGI,T-47D breast,3650 nM
same,GI50,TK-10 renal,1430 nM
same,TGI,TK-10 renal,2750 nM
same,GI50,U251 CNS,916 nM
same,TGI,U251 CNS,2140 nM
same,GI50,UACC-257 melanoma,1580 nM
same,TGI,UACC-257 melanoma,2960 nM
same,GI50,UACC-62 melanoma,1270 nM
same,TGI,UACC-62 melanoma,2660 nM
same,GI50,UO-31 renal,1210 nM
same,TGI,UO-31 renal,2460 nM
